Measured values reported in patent US20250230172A1 (Vanqua Bio, Inc., priority 2021, published 2025).

Target: T1, GCase (Homo sapiens, UniProt P04062)
T1 construct: endogenous in cells; host or cells: HeLa cells
T1 sequence (P04062 40-536): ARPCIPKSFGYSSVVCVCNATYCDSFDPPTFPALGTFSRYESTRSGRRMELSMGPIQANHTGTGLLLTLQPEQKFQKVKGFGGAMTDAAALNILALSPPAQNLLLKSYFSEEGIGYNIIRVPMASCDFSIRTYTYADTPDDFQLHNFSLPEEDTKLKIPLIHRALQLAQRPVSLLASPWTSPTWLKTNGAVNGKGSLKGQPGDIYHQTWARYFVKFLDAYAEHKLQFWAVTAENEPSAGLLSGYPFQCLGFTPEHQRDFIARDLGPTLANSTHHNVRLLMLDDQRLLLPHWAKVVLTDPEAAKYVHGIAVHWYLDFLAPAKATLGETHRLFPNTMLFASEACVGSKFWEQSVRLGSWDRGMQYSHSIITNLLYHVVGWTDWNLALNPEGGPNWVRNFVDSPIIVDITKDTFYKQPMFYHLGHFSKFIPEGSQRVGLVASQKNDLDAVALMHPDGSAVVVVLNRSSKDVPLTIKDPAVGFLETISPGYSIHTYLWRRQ
Test: live cell PFB assay in HELA cells for activation of GCase
Type: cell-based
Description: Exemplary compounds were evaluated for activation of GCase in a live cell PFB assay in HELA cells (essentially as described in Ysselstein et al., “LRRK2 kinase activity regulates lysosomal glucocerebrosidase in neurons derived from Parkinson's disease patients” Nature Communications (2019) 10:5570). […] EC50 ranges: A: <10 μM; B: >10-50 μM; C: >50-100 μM; D: >100 μM.

Row | EC50 | SMILES
1 | < 10 µM | FC(F)Cn1ncc2ncc(N3CC[C@H]4[C@@H]3CCN4c3cc(C(F)(F)F)ccn3)nc21 (racemic) [Compound 56, rac-2-[(3aR,6aR)-4-[1-(2,2-difluoroethyl)-1H-pyrazolo[3,4-b]pyrazin-6-yl]-octahydropyrrolo[3,2-b]pyrrol-1-yl]-4-(trifluoromethyl)pyridine]
2 | 10 to 50 µM | FC(F)Cn1ncc2ncc(N3CC[C@H]4[C@@H]3CCN4c3cccc(C(F)(F)F)n3)nc21 (racemic) [Compound 57, rac-2-[(3aR,6aR)-4-[1-(2,2-difluoroethyl)-1H-pyrazolo[3,4-b]pyrazin-6-yl]-octahydropyrrolo[3,2-b]pyrrol-1-yl]-6-(trifluoromethyl)pyridine]
3 | 10 to 50 µM | FC(F)Cn1ncc2ncc(N3CC[C@H]4CN(c5cc(C(F)(F)F)ccn5)C[C@H]43)nc21 (racemic) [Compound 58, rac-2-[(3aR,6aR)-1-[1-(2,2-difluoroethyl)-1H-pyrazolo[3,4-b]pyrazin-6-yl]-octahydropyrrolo[3,4-b]pyrrol-5-yl]-4-(trifluoromethyl)pyridine]
4 | 10 to 50 µM | FC(F)Cn1ncc2ncc(N3CC[C@H]4CN(c5cccc(C(F)(F)F)n5)C[C@H]43)nc21 (racemic) [Compound 59, rac-2-[(3aR,6aR)-1-[1-(2,2-difluoroethyl)-1H-pyrazolo[3,4-b]pyrazin-6-yl]-octahydropyrrolo[3,4-b]pyrrol-5-yl]-6-(trifluoromethyl)pyridine]
5 | 10 to 50 µM | FC(F)Cn1ncc2ncc(N3C[C@@H]4CCN(c5cc(C(F)(F)F)ccn5)[C@@H]4C3)nc21 (racemic) [Compound 60, rac-2-[(3aR,6aR)-5-[1-(2,2-difluoroethyl)-1H-pyrazolo[3,4-b]pyrazin-6-yl]-octahydropyrrolo[2,3-c]pyrrol-1-yl]-4-(trifluoromethyl)pyridine]
6 | 10 to 50 µM | FC(F)Cn1ncc2ncc(N3C[C@@H]4CCN(c5cccc(C(F)(F)F)n5)[C@@H]4C3)nc21 (racemic) [Compound 61, rac-2-[(3aR,6aR)-5-[1-(2,2-difluoroethyl)-1H-pyrazolo[3,4-b]pyrazin-6-yl]-octahydropyrrolo[2,3-c]pyrrol-1-yl]-6-(trifluoromethyl)pyridine]
7 | 10 to 50 µM | O=C1[C@@H]2CN(c3cccc(C(F)(F)F)n3)C[C@@H]2CN1c1cnc2cnn(CC(F)F)c2n1 (racemic) [Compound 62, rac-(3aR,6aS)-2-[1-(2,2-difluoroethyl)-1H-pyrazolo[3,4-b]pyrazin-6-yl]-5-[6-(trifluoromethyl)pyridin-2-yl]-octahydropyrrolo[3,4-c]pyrrol-1-one]
8 | 10 to 50 µM | FC(F)Cn1ncc2ncc(N3CC[C@@H]4CN(c5ccc(C(F)(F)F)cn5)C[C@H]4C3)nc21 (single isomer, unassigned) [Compound 68]
9 | < 10 µM | FC(F)Cn1ncc2ncc(N[C@H]3CC[C@@H]4CN(c5cccc(C(F)(F)F)n5)C[C@@H]4C3)nc21 (single isomer, unassigned) [Compound 70]
10 | 10 to 50 µM | FC(F)Cn1ncc2ncc(N[C@@H]3CC[C@@H]4CN(c5cccc(C(F)(F)F)n5)C[C@@H]4C3)nc21 (single isomer, unassigned) [Compound 71]
11 | < 10 µM | FC(F)Cn1ncc2ncc(N[C@H]3CC[C@@H]4CN(c5cc(C(F)(F)F)ccn5)C[C@@H]4C3)nc21 (single isomer, unassigned) [Compound 72]
12 | 10 to 50 µM | FC(F)Cn1ncc2ncc(N[C@@H]3CC[C@@H]4CN(c5cc(C(F)(F)F)ccn5)C[C@@H]4C3)nc21 (single isomer, unassigned) [Compound 73]
13 | 10 to 50 µM | FC(F)Cn1ncc2ncc(N[C@H]3CC[C@@H]4CN(c5cccnc5C(F)(F)F)C[C@@H]4C3)nc21 (single isomer, unassigned) [Compound 74]
14 | > 100 µM | FC(F)Cn1ncc2ncc(N[C@@H]3CC[C@@H]4CN(c5cccnc5C(F)(F)F)C[C@@H]4C3)nc21 (single isomer, unassigned) [Compound 75]
15 | 50 to 100 µM | FC(F)Cn1ncc2ncc(N3CCN4C[C@H](Oc5cccnc5C(F)(F)F)C[C@H]4C3)nc21 [Compound 26, 3-{[(7R,8aS)-2-[1-(2,2-difluoroethyl)-1H-pyrazolo[3,4-b]pyrazin-6-yl]-octahydropyrrolo[1,2-a]pyrazin-7-yl]oxy}-2-(trifluoromethyl)pyridine]
16 | 50 to 100 µM | Cn1c(-c2ccccc2)c(C(=O)N2CCN3C[C@H](Oc4cccnc4C(F)(F)F)C[C@H]3C2)c2nccnc21 [Compound 27, 3-{[(7R,8aS)-2-{5-methyl-6-phenyl-5H-pyrrolo[2,3-b]pyrazine-7-carbonyl}-octahydropyrrolo[1,2-a]pyrazin-7-yl]oxy}-2-(trifluoromethyl)pyridine]
17 | 10 to 50 µM | O=C(c1ccc2cc[nH]c2c1)N1CCN2C[C@H](Oc3cccnc3C(F)(F)F)C[C@H]2C1 [Compound 28, 6-[(7R,8aS)-7-{[2-(trifluoromethyl)pyridin-3-yl]oxy}-octahydropyrrolo[1,2-a]pyrazine-2-carbonyl]-1H-indole]
18 | < 10 µM | FC(F)Cn1ncc2ncc(N3CC4CC(Oc5cccc(C(F)(F)F)n5)CC4C3)nc21 (centres unmarked) [Compound 29, 2-({2-[1-(2,2-difluoroethyl)-1H-pyrazolo[3,4-b]pyrazin-6-yl]-octahydrocyclopenta[c]pyrrol-5-yl}oxy)-6-(trifluoromethyl)pyridine]
19 | < 10 µM | FC(F)Cn1ncc2ncc(N3CC4CC(Oc5cc(C(F)(F)F)ccn5)CC4C3)nc21 (centres unmarked) [Compound 30, 2-({2-[1-(2,2-difluoroethyl)-1H-pyrazolo[3,4-b]pyrazin-6-yl]-octahydrocyclopenta[c]pyrrol-5-yl}oxy)-4-(trifluoromethyl)pyridine]
20 | > 100 µM | FC(F)Cn1ncc2ncc(N3CC4CC(Oc5cccnc5C(F)(F)F)CC4C3)nc21 (centres unmarked) [Compound 31, 3-({2-[1-(2,2-difluoroethyl)-1H-pyrazolo[3,4-b]pyrazin-6-yl]-octahydrocyclopenta[c]pyrrol-5-yl}oxy)-2-(trifluoromethyl)pyridine]
21 | < 10 µM | FC(F)Cn1ncc2ncc(N[C@@H]3C[C@@H]4CN(c5cccc(C(F)(F)F)n5)C[C@@H]4C3)nc21 [Compound 32, (3aR,5S,6aS)—N-[1-(2,2-difluoroethyl)-1H-pyrazolo[3,4-b]pyrazin-6-yl]-2-[6-(trifluoromethyl)pyridin-2-yl]-octahydrocyclopenta[c]pyrrol-5-amine]
22 | < 10 µM | FC(F)Cn1ncc2ncc(N[C@@H]3C[C@@H]4CN(c5cc(C(F)(F)F)ccn5)C[C@@H]4C3)nc21 [Compound 33, (3aR,5S,6aS)—N-[1-(2,2-difluoroethyl)-1H-pyrazolo[3,4-b]pyrazin-6-yl]-2-[4-(trifluoromethyl)pyridin-2-yl]-octahydrocyclopenta[c]pyrrol-5-amine]
23 | 10 to 50 µM | FC(F)Cn1ncc2ncc(N[C@H]3C[C@@H]4CN(c5cccc(C(F)(F)F)n5)C[C@@H]4C3)nc21 [Compound 34, (3aR,5R,6aS)—N-[1-(2,2-difluoroethyl)-1H-pyrazolo[3,4-b]pyrazin-6-yl]-2-[6-(trifluoromethyl)pyridin-2-yl]-octahydrocyclopenta[c]pyrrol-5-amine]
24 | < 10 µM | FC(F)Cn1ncc2ncc(N[C@H]3C[C@@H]4CN(c5cc(C(F)(F)F)ccn5)C[C@@H]4C3)nc21 [Compound 35, (3aR,5R,6aS)—N-[1-(2,2-difluoroethyl)-1H-pyrazolo[3,4-b]pyrazin-6-yl]-2-[4-(trifluoromethyl)pyridin-2-yl]-octahydrocyclopenta[c]pyrrol-5-amine]
25 | < 10 µM | FC(F)Cn1ncc2ncc(N[C@@H]3C[C@@H]4CN(c5cccnc5C(F)(F)F)C[C@@H]4C3)nc21 [Compound 36, (3aR,5S,6aS)—N-[1-(2,2-difluoroethyl)-1H-pyrazolo[3,4-b]pyrazin-6-yl]-2-[2-(trifluoromethyl)pyridin-3-yl]-octahydrocyclopenta[c]pyrrol-5-amine]
26 | < 10 µM | FC(F)Cn1ncc2ncc(N[C@H]3C[C@@H]4CN(c5cccnc5C(F)(F)F)C[C@@H]4C3)nc21 [Compound 37, (3aR,5R,6aS)—N-[1-(2,2-difluoroethyl)-1H-pyrazolo[3,4-b]pyrazin-6-yl]-2-[2-(trifluoromethyl)pyridin-3-yl]-octahydrocyclopenta[c]pyrrol-5-amine]
27 | < 10 µM | FC(F)Cn1ncc2ncc(N[C@@H]3C[C@@H]4CN(c5ncccc5C(F)(F)F)C[C@@H]4C3)nc21 [Compound 38, (3aR,5S,6aS)—N-[1-(2,2-difluoroethyl)-1H-pyrazolo[3,4-b]pyrazin-6-yl]-2-[3-(trifluoromethyl)pyridin-2-yl]-octahydrocyclopenta[c]pyrrol-5-amine]
28 | < 10 µM | FC(F)Cn1ncc2ncc(N[C@@H]3C[C@@H]4CN(c5ccc(C(F)(F)F)nc5)C[C@@H]4C3)nc21 [Compound 39, (3aR,5S,6aS)—N-[1-(2,2-difluoroethyl)-1H-pyrazolo[3,4-b]pyrazin-6-yl]-2-[6-(trifluoromethyl)pyridin-3-yl]-octahydrocyclopenta[c]pyrrol-5-amine]
29 | 10 to 50 µM | FC(F)Cn1ncc2ncc(N[C@H]3C[C@@H]4CN(c5ccc(C(F)(F)F)cn5)C[C@@H]4C3)nc21 [Compound 40, (3aR,5S,6aS)—N-[1-(2,2-difluoroethyl)-1H-pyrazolo[3,4-b]pyrazin-6-yl]-2-[5-(trifluoromethyl)pyridin-2-yl]-octahydrocyclopenta[c]pyrrol-5-amine]
